Results reported in patent US6613776B2, “Pyrazole compounds useful as protein kinase inhibitors” (Vertex Pharmaceuticals Incorporated, priority 2000, dated 2003).

Tests used:
[1] = target: T1, Aurora-2 (Homo sapiens, UniProt O14965); experiment: Ki determination for the inhibition of Aurora-2 (coupled enzyme assay); assay type: biochemical; details: 70 nM Aurora-2, 30° C.
T1 sequence (O14965 1-403): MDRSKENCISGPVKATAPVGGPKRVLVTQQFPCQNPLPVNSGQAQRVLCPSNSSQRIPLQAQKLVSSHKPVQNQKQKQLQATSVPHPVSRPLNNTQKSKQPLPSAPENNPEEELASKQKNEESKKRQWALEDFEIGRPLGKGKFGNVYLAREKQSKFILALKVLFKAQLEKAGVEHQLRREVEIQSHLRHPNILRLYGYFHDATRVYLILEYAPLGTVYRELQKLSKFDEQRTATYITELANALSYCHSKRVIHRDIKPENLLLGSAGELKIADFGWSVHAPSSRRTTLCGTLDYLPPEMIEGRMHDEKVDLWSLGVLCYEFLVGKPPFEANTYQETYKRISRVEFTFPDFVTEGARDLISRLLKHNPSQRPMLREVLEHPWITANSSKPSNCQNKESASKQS
Procedure: Compounds were screened in the following manner for their ability to inhibit Aurora-2 using a standard coupled enzyme assay (Fox et al (1998) Protein Sci 7, 2249).
To an assay stock buffer solution containing 0.1M HEPES 7.5, 10 mM MgCl2, 1 mM DTT, 25 mM NaCl, 2.5 mM phosphoenolpyruvate, […], 30 mg/ml pyruvate kinase, 10 mg/ml lactate dehydrogenase, […], and 800 μM peptide (LRRASLG, American Peptide, Sunnyvale, Calif.) was added a DMSO solution of a compound of the present invention to a final concentration of 30 μM. The resulting mixture was incubated at 30° C. for 10 min. The reaction was initiated by the addition of 10 μL of Aurora-2 stock solution to give a final concentration of 70 nM in the assay. The rates of reaction were obtained by monitoring absorbance at 340 nm over a 5 minute read time at 30° C. using a BioRad Ultramark plate reader (Hercules, Calif.). The Ki values were determined from the rate data as a function of inhibitor concentration.

[2] = target: T2, GSK-3β (AA 1-420) (Homo sapiens, UniProt P49841); experiment: Ki determination for the inhibition of GSK-3 (coupled enzyme system); assay type: biochemical; details: 20 μM ATP, 300 μM peptide, 20 nM GSK-3β, 30° C.
T2 construct: GSK-3β (AA 1-420)
Procedure: Compounds were screened for their ability to inhibit GSK-3β (AA 1-420) activity using a standard coupled enzyme system (Fox et al. (1998) Protein Sci. 7, 2249). Reactions were carried out in a solution containing 100 mM HEPES (pH 7.5), 10 mM MgCl2, 25 mM NaCl, 300 μM NADH, 1 mM DTT and 1.5% DMSO. Final substrate concentrations in the assay were 20 μM ATP (Sigma Chemicals, St Louis, Mo.) and 300 μM peptide (HSSPHQS(PO3H2)EDEEE, American Peptide, Sunnyvale, Calif.). Reactions were carried out at 30° C. and 20 nM GSK-3β. Final concentrations of the components of the coupled enzyme system were 2.5 mM phosphoenolpyruvate, 300 μM NADH, 30 μg/ml pyruvate kinase and 10 μg/ml lactate dehydrogenase.
An assay stock buffer solution was prepared containing all of the reagents listed above with the exception of ATP and the test compound of interest. The assay stock buffer solution (175 μl) was incubated in a 96 well plate with 5 μl of the test compound of interest at final concentrations spanning 0.002 μM to 30 μM at 30° C. for 10 min. Typically, a 12 point titration was conducted by preparing serial dilutions (from 10 mM compound stocks) with DMSO of the test compounds in daughter plates. […] Rates of reaction were obtained using a Molecular Devices Spectramax plate reader (Sunnyvale, Calif.) over 10 min at 30° C. The Ki values were determined from the rate data as a function of inhibitor concentration.

T2 sequence (P49841 whole entry, the tested form may be a part): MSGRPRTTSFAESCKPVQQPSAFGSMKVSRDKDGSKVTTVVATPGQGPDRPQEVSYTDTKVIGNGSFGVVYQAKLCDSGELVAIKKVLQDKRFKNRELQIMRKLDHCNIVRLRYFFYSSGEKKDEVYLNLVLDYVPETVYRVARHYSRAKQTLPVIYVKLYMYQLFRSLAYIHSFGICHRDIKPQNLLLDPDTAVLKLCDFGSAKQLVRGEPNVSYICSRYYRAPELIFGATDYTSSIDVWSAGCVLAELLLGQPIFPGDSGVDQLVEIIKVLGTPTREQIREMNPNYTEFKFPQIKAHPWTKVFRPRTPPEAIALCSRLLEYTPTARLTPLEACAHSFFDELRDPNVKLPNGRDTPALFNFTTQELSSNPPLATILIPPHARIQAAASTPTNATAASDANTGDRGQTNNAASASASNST

| Ki [1] [nM] | Ki [2] [nM] | melting point [°C] | Structure (SMILES) |
| --- | --- | --- | --- |
| 100 to 1000 | 100 to 1000 | > 300 | Cc1cc(Nc2nc(N3CCC(C)CC3)nc3nc[nH]c23)n[nH]1 [IV-33, [2-(4-Methylpiperidin-1-yl)-purin-4-yl]-(S-methyl-2H-pyrazol-3-yl)-amine] |
|  | 100 to 1000 |  | COC(=O)c1cc(Nc2ccnc(N3CCCCC3)n2)n[nH]1 [IV-8] |
